# In patent publication US20060148752A1, “Method of treating soild tumors and leukemias using combination therapy of vitamin D and anti-metabolic nucleoside analogs” (priority 2004, published 2006):
# “Also recorded” adds a separate entry of the source.
# Key:
# Format in all cases: cell-based, human
# caspase-6 = experiment: Caspase-6 cleavage (Western blot) and activity (colorimetric assay) in capan-1 cells; conditions: vehicle or 0.75 μM calcitriol 24 h, then varying concentrations of gemcitabine
# Description: (§1) FIG. 5 is a series of Western blots illustrating the effects of treatment with calcitriol and gemcitabine on caspase pathway induction in capan-1 cells. […] Cell lysates were prepared and analyzed by Western blot for caspase-3, caspase-6, caspase-8, and caspase-9. […] FIGS. 6A-D show quantitation of caspase-3, caspase-6, caspase-8, and caspase-9. Activity of caspase-3 (FIG. 6A), caspase-6 (FIG. 6B), caspase-8 (FIG. 6C), and caspase-9 (FIG. 6D) in capan-1 cells was measured by caspase-family colorimetric substrate assays, according to the manufacturer's protocol. Absorbance at 400 nm was determined, and the caspase activity was expressed as absorbance (ODU) per milligram of protein per reaction. […] Caspase activity was expressed as absorbance (O.D.) per milligram of protein per reaction. For Western blot analysis, capan-1 cells were harvested and lysed in Triton-X100/SDS buffer as described previously ([…] et al., J. Biol. Chem. 276(33):30923-33 (2001), which is hereby incorporated by reference in its entirety). Proteins were transferred to PVDF membrane, and Western blots developed using Renaissance Enhanced Chemiluminescence Reagents (NEN Life Science Products, Boston, Mass.) or SuperSignal (Pierce, Rockford, Ill.).
# caspase-8 = experiment: Caspase-8 cleavage (Western blot) and activity (colorimetric assay) in capan-1 cells; conditions: vehicle or 0.75 μM calcitriol 24 h, then varying concentrations of gemcitabine
# Description: as §1
# P-Erk1/2 = experiment: Immunoblot of P-Erk1/2 expression in capan-1 cells; conditions: vehicle or 0.75 μM calcitriol 24 h, then varying concentrations of gemcitabine 24 h
# Description: (§2) FIG. 4 is an immunoblot showing inhibition of survival signaling pathways in capan-1 by treatment with gemcitabine and 1,25D3. Capan-1 cells were treated 24 h with either vehicle or 0.75 μM calcitriol and then were treated with varying concentrations of gemcitabine for another 24 h. Cells were processed for immunoblotting to assess P-ErK1/2 and P-Akt expression. P-Erk1/2 was not affected by either agent alone or by the calcitriol/gemcitabine combination. […] For Western blot analysis, capan-1 cells were harvested and lysed in Triton-X100/SDS buffer as described previously ([…] et al., J. Biol. Chem. 276(33):30923-33 (2001), which is hereby incorporated by reference in its entirety). Proteins were transferred to PVDF membrane, and Western blots developed using Renaissance Enhanced Chemiluminescence Reagents (NEN Life Science Products, Boston, Mass.) or SuperSignal (Pierce, Rockford, Ill.).
# P-Akt = experiment: Immunoblot of P-Akt expression in capan-1 cells; conditions: vehicle or 0.75 μM calcitriol 24 h, then varying concentrations of gemcitabine 24 h
# Description: as §2
# caspase-9 = experiment: Caspase-9 cleavage (Western blot) and activity (colorimetric assay) in capan-1 cells; conditions: vehicle or 0.75 μM calcitriol 24 h, then varying concentrations of gemcitabine
# Description: as §1
Compound,caspase-6 cleavage/activation (caspase-6),caspase-8 cleavage/activation (caspase-8),P-Erk1/2 expression (P-Erk1/2),P-Akt levels (P-Akt),caspase-9 cleavage/activation (caspase-9)
"C=C1/C(=C\C=C2/CCC[C@]3(C)[C@@H]([C@H](C)CCCC(C)(C)O)CC[C@@H]23)C[C@@H](O)C[C@@H]1O [calcitriol, 1,25-dihydroxycholecalciferol]",not cleaved at detectable levels,not cleaved at detectable levels; also recorded: no change,not affected,modestly reduced,not cleaved at detectable levels; also recorded: modestly increased
Nc1ccn([C@@H]2O[C@H](CO)[C@@H](O)C2(F)F)c(=O)n1 [gemcitabine],–,"increase in the cleaved, activated form",not affected,little affected; also recorded: not affected,no significant change; also recorded: modestly increased
